Experimental findings from PubChem BioAssay (NCI) are described below.

Structures are written as SMILES.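 Compound exposure: 48 hours, 5 concentrations, 96-well plates. TGI is the concentration that stops growth completely.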

Among the test systems are HCT-15 colon; OVCAR-4 ovarian; 786-0 renal; COLO 205 colon; KM12 colon; MOLT-4 leukemia; HL-60(TB) leukemia; M14 melanoma; CAKI-1 renal; ACHN renal; HCC-2998 colon; A498 renal; MDA-N; SR leukemia.
What all share (experiment): inhibition of tumour cell growth, NCI panel, 48 h

For the molecule `[N-]=[N+]=Nc1ccc(NCCCCCC(=O)ON2C(=O)CCC2=O)c([N+](=O)[O-])c1`, the TGI in the test on HCT-15 colon, in the test with OVCAR-4 ovarian, in the test with 786-0 renal, in the test with COLO 205 colon, in the test with KM12 colon and in the test on MOLT-4 leukemia was over 100 µM in each case. In addition, the TGI in the test on HL-60(TB) leukemia, in the test with M14 melanoma, in the test on CAKI-1 renal and in the test on ACHN renal was over 100 µM in each case.

As for `CC1CC(C)[C@H](O)C([C@H](O)CC2CC(=O)N(C)C(=O)C2)C1` (stereo partly drawn), the TGI in the test on HCC-2998 colon, in the test on HCT-15 colon, with OVCAR-4 ovarian, in the test with 786-0 renal, with A498 renal and with MDA-N was over 100 µM each time. Also, the TGI with COLO 205 colon, in the test with KM12 colon, with MOLT-4 leukemia, in the test with HL-60(TB) leukemia, in the test on M14 melanoma and in the test on CAKI-1 renal was over 100 µM in each case. In the test with ACHN renal, this molecule displayed a TGI of over 100 µM.

Regarding `O[C@@]1(c2cccs2)c2cccc(Cl)c2[C@](O)(c2cccs2)c2cccc(Cl)c21`, the TGI with HCC-2998 colon came out at 32.7 µM; in the test on HCT-15 colon, 61.7 µM; in the test with OVCAR-4 ovarian, 40.9 µM; in the test on 786-0 renal it was 32.5 µM; in the test on A498 renal, 25.8 µM; in the test on MDA-N it was 36.4 µM. Further, the TGI was 38.6 µM in the test on COLO 205 colon; 34 µM in the test on KM12 colon; 56.3 µM in the test with MOLT-4 leukemia; 46.3 µM in the test on HL-60(TB) leukemia; 31.5 µM in the test with M14 melanoma; over 100 µM with CAKI-1 renal. In the test on ACHN renal, the TGI is 39.5 µM.

For `CC1C2=C(CC(C)(C)CC2=O)NC2=C1C(=O)CC(C)(C)C2`, the TGI in the test with HCC-2998 colon, in the test on HCT-15 colon, with OVCAR-4 ovarian, with 786-0 renal, in the test with A498 renal and in the test with SR leukemia was over 100 µM in each case. For the same molecule, the TGI with KM12 colon, with MOLT-4 leukemia, with HL-60(TB) leukemia, with M14 melanoma, with CAKI-1 renal and with ACHN renal was over 100 µM throughout.

Regarding `O=S(=O)(C(=Ic1ccccc1)S(=O)(=O)C(F)(F)C(F)(F)C(F)(F)C(F)(F)F)C(F)(F)C(F)(F)C(F)(F)C(F)(F)F`, the TGI in the test on HCC-2998 colon was found to be 40.4 µM; in the test on HCT-15 colon, 33.7 µM; in the test on OVCAR-4 ovarian, 14.7 µM; with 786-0 renal, 29.5 µM; with A498 renal, 28.6 µM; with SR leukemia it was 21.9 µM. For the same molecule, the TGI in the test with COLO 205 colon is 21.8 µM; with KM12 colon it was 41.7 µM; with MOLT-4 leukemia it was 13.8 µM; in the test on HL-60(TB) leukemia it was 62 µM; in the test with M14 melanoma, 28.2 µM; in the test on CAKI-1 renal, 25.9 µM. In the test with ACHN renal, the TGI amounted to 19.3 µM.

On to `CC(CN(C)C)C(=O)c1ccccc1C(=O)O` (stereo not drawn), for which the TGI with HCT-15 colon was over 100 µM; in the test on OVCAR-4 ovarian, over 100 µM; in the test on 786-0 renal, over 100 µM; in the test with A498 renal it was over 100 µM; in the test on MDA-N, over 100 µM; with COLO 205 colon, 66.3 µM. Further, the TGI was over 100 µM in the test with KM12 colon; 70.1 µM in the test on MOLT-4 leukemia; 49.4 µM in the test with HL-60(TB) leukemia; 76.6 µM in the test on M14 melanoma; 83.9 µM with CAKI-1 renal; over 100 µM with ACHN renal.

Turning to `O=C(O)c1nc2cc(C(F)(F)F)ccc2nc1Nc1ccc(Cl)c(Cl)c1`, the TGI in the test on HCT-15 colon came out at 24.8 µM; in the test on OVCAR-4 ovarian, 65.9 µM; in the test with 786-0 renal, 29.3 µM; in the test on A498 renal, 31.1 µM; with SR leukemia it was 96.3 µM; with MDA-N, 69.2 µM. Moreover, the TGI stood at 30.2 µM in the test with COLO 205 colon; 26.2 µM in the test on KM12 colon; 26 µM in the test on M14 melanoma; 80.3 µM in the test on CAKI-1 renal; 36 µM with ACHN renal.

`NCCC(=O)N[C@H](Cc1cc(O)c(O)c(SCC(NC(=O)CC[C@H](N)C(=O)O)C(=O)NCC(=O)O)c1)C(=O)O` (stereo partly drawn): the TGI in the test on HCC-2998 colon, with HCT-15 colon, with OVCAR-4 ovarian, in the test on 786-0 renal, with A498 renal and in the test with MDA-N was over 50 µM throughout. Moreover, the TGI in the test on COLO 205 colon, in the test with KM12 colon, with M14 melanoma, with CAKI-1 renal and with ACHN renal was over 50 µM throughout.

For `COc1ccc(/C(CCl)=C(\Nc2ccccc2)c2ccc(OC)c(OC)c2)cc1OC`, the TGI in the test on HCC-2998 colon, with HCT-15 colon, with OVCAR-4 ovarian, in the test on 786-0 renal, with A498 renal and with MDA-N was over 100 µM throughout. Further, the TGI in the test with COLO 205 colon, with KM12 colon, in the test on MOLT-4 leukemia, in the test on HL-60(TB) leukemia, in the test on M14 melanoma and with CAKI-1 renal was over 100 µM throughout. For the same molecule, the TGI in the test on ACHN renal is over 100 µM.

Turning to `N#Cc1nc(C2CC2)oc1N`, the TGI with HCC-2998 colon, with HCT-15 colon, with OVCAR-4 ovarian, in the test with 786-0 renal, in the test on SR leukemia and with MDA-N was over 100 µM in each case. Further, the TGI in the test with COLO 205 colon, in the test with KM12 colon, in the test with MOLT-4 leukemia, with M14 melanoma, with CAKI-1 renal and with ACHN renal was over 100 µM in each case.

As to `CCC(CS(=O)(=O)O)[N+](=O)[O-]` (stereo not drawn), the TGI with HCC-2998 colon, with HCT-15 colon, in the test with OVCAR-4 ovarian, in the test on 786-0 renal, in the test on A498 renal and in the test on MDA-N was over 100 µM in each case. The TGI with COLO 205 colon, in the test with KM12 colon, in the test with MOLT-4 leukemia, in the test with HL-60(TB) leukemia, in the test with M14 melanoma and in the test on CAKI-1 renal was over 100 µM in each case. The same molecule had a TGI in the test with ACHN renal of over 100 µM.
